Laboratory results from patent US20230143604A1, “QW DOSING OF GIP RECEPTOR AGONIST PEPTIDE COMPOUNDS AND USES THEREOF” (TAKEDA PHARMACEUTICAL COMPANY LIMITED, priority 2020, published 2023).
Starred links: 1 amine or outer side, 2 acyl side, 3 side chain; linkers in the order of their positions; H or OH if unused. Non-standard residues stand in square brackets, D forms with d. Residues, ends and D or L forms follow the SMILES beside them. Groups on a side chain read outwards from the residue. *: point of attachment. C18 diacid = O=C(O)CCCCCCCCCCCCCCCCC(=O)*; γGlu = O=C(O)[C@H](CCC(=O)[*:2])N[*:1]; NMeY = CN[C@@H](Cc1ccc(O)cc1)C(=O)O; AEEA = NCCOCCOCC(=O)O; Aib = CC(C)(N)C(=O)O

Assay: physchem
Description: Solubility of the GIPR peptides may be determined by dissolution in a phosphate buffer followed by quantitation using liquid chromatography, for example, High Performance Liquid Chromatogry (HPLC). An illustrative method is provided. For determination of the solubility of the GIPr agonist peptides, 3 mg of peptides are weighted out in a small glass vial. 100 μL of 200 mM Phosphate buffer pH 7.4 are added and the vial is sonicated/votexed as necessary for a maximum of 1 min. […] If insoluble material is observed in the tube the addition of 100 μL of buffer and mixing is repeated until complete dissolution.
3 mg of peptides are weighted out in a small glass vial. 100 uL of 200 mM Phosphate buffer pH 7.4 are added and the vial is sonicated/votexed as necessary for a maximum of 1 min. […] If insoluble material is observed in the tube the addition of 100 uL of buffer and mixing is repeated until complete dissolution.

[1] = pH 7.4, aqueous buffer, pH 7.4 Phosphate Buffer - Solubility, 200 mM Phosphate buffer pH 7.4
[2] = pH 7.4, solubility in phosphate buffer at pH 7.4, 200 mM phosphate buffer pH 7.4

Compound | solubility (pH 7.4) | solubility (pH 7.4, aqueous buffer) | solubility [1] | solubility [2]
CC[C@H](C)[C@H](NC(=O)[C@H](CO)NC(=O)[C@H](Cc1ccc(O)cc1)NC(=O)[C@H](CC(=O)O)NC(=O)[C@H](CO)NC(=O)[C@@H](NC(=O)[C@H](Cc1ccccc1)NC(=O)[C@@H](NC(=O)CNC(=O)[C@H](CCC(=O)O)NC(=O)C(C)(C)NC(=O)[C@H](Cc1ccc(O)cc1)NC)[C@@H](C)O)[C@@H](C)CC)C(=O)N[C@@H](C)C(=O)N[C@@H](CC(C)C)C(=O)N[C@@H](CC(=O)O)C(=O)N[C@@H](CCCNC(=N)N)C(=O)NC(C)(C)C(=O)N[C@@H](CCCCNC(=O)COCCOCCNC(=O)COCCOCCNC(=O)CC[C@H](NC(=O)CC[C@H](NC(=O)CCCCCCCCCCCCCCCCC(=O)O)C(=O)O)C(=O)O)C(=O)N[C@@H](CCC(N)=O)C(=O)NC(C)(C)C(=O)N[C@@H](CC(N)=O)C(=O)N[C@@H](Cc1ccccc1)C(=O)N[C@H](C(=O)N[C@@H](CC(N)=O)C(=O)N[C@@H](Cc1c[nH]c2ccccc12)C(=O)N[C@@H](CC(C)C)C(=O)N[C@@H](CC(C)C)C(=O)N[C@@H](C)C(=O)N[C@@H](CCC(N)=O)C(=O)N[C@@H](CCCNC(=N)N)C(N)=O)C(C)C [Compound 17] (H-[NMeY][Aib]EGTFISDYSIALDR[Aib]K([AEEA-AEEA-γGlu-γGlu-C18 diacid])Q[Aib]NFVNWLLAQR-NH2) | ≥ 15 mg/mL | ≥ 30 mg/mL |  | 
CC[C@H](C)[C@H](NC(=O)[C@H](CO)NC(=O)[C@H](Cc1ccc(O)cc1)NC(=O)[C@H](CC(=O)O)NC(=O)[C@H](CO)NC(=O)[C@@H](NC(=O)[C@H](Cc1ccccc1)NC(=O)[C@@H](NC(=O)CNC(=O)[C@H](CCC(=O)O)NC(=O)C(C)(C)NC(=O)[C@H](Cc1ccc(O)cc1)NC)[C@@H](C)O)[C@@H](C)CC)C(=O)N[C@@H](C)C(=O)N[C@@H](CC(C)C)C(=O)N[C@@H](CC(=O)O)C(=O)N[C@@H](CCCNC(=N)N)C(=O)NC(C)(C)C(=O)N[C@@H](Cc1c[nH]cn1)C(=O)N[C@@H](CCC(N)=O)C(=O)NC(C)(C)C(=O)N[C@@H](CCCCNC(=O)COCCOCCNC(=O)COCCOCCNC(=O)CC[C@H](NC(=O)CC[C@H](NC(=O)CCCCCCCCCCCCCCCCC(=O)O)C(=O)O)C(=O)O)C(=O)N[C@@H](Cc1ccccc1)C(=O)N[C@H](C(=O)N[C@@H](CC(N)=O)C(=O)N[C@@H](Cc1c[nH]c2ccccc12)C(=O)N[C@@H](CC(C)C)C(=O)N[C@@H](CC(C)C)C(=O)N[C@@H](C)C(=O)N[C@@H](CCC(N)=O)C(=O)N[C@@H](CCCNC(=N)N)C(N)=O)C(C)C [Compound 18] (H-[NMeY][Aib]EGTFISDYSIALDR[Aib]HQ[Aib]K([AEEA-AEEA-γGlu-γGlu-C18 diacid])FVNWLLAQR-NH2) | ≥ 15 mg/mL | ≥ 30 mg/mL |  | 
CC[C@H](C)[C@H](NC(=O)[C@H](CO)NC(=O)[C@H](Cc1ccc(O)cc1)NC(=O)[C@H](CC(=O)O)NC(=O)[C@H](CO)NC(=O)[C@@H](NC(=O)[C@H](Cc1ccccc1)NC(=O)[C@@H](NC(=O)CNC(=O)[C@H](CCC(=O)O)NC(=O)C(C)(C)NC(=O)[C@H](Cc1ccc(O)cc1)NC)[C@@H](C)O)[C@@H](C)CC)C(=O)N[C@@H](C)C(=O)N[C@@H](CC(C)C)C(=O)N[C@@H](CC(=O)O)C(=O)N[C@@H](CCCNC(=N)N)C(=O)N[C@@H](CCCCNC(=O)CNC(=O)CNC(=O)CNC(=O)CNC(=O)CNC(=O)CC[C@H](NC(=O)CCCCCCCCCCCCCCCC(=O)O)C(=O)O)C(=O)N[C@@H](Cc1c[nH]cn1)C(=O)N[C@@H](CCC(N)=O)C(=O)NC(C)(C)C(=O)N[C@@H](CC(N)=O)C(=O)N[C@@H](Cc1ccccc1)C(=O)N[C@H](C(=O)N[C@@H](CC(N)=O)C(=O)N[C@@H](Cc1c[nH]c2ccccc12)C(=O)N[C@@H](CC(C)C)C(=O)N[C@@H](CC(C)C)C(=O)N[C@@H](C)C(=O)N[C@@H](CCC(N)=O)C(=O)N[C@@H](CCCNC(=N)N)C(=O)N1CCC[C@H]1C(=O)N[C@@H](CO)C(=O)N[C@@H](CO)C(=O)NCC(=O)N[C@@H](C)C(=O)N1CCC[C@H]1C(=O)N1CCC[C@H]1C(=O)N1CCC[C@H]1C(=O)N[C@@H](CO)C(=O)O)C(C)C [Compound 20] |  |  | ≥ 15 mg/mL | 
CC[C@H](C)[C@H](NC(=O)[C@H](CO)NC(=O)[C@H](Cc1ccc(O)cc1)NC(=O)[C@H](CC(=O)O)NC(=O)[C@H](CO)NC(=O)[C@@H](NC(=O)[C@H](Cc1ccccc1)NC(=O)[C@@H](NC(=O)CNC(=O)[C@H](CCC(=O)O)NC(=O)C(C)(C)NC(=O)[C@H](Cc1ccc(O)cc1)NC)[C@@H](C)O)[C@@H](C)CC)C(=O)N[C@@H](C)C(=O)N[C@@H](CC(C)C)C(=O)N[C@@H](CC(=O)O)C(=O)N[C@@H](CCCNC(=N)N)C(=O)NC(C)(C)C(=O)N[C@@H](C)C(=O)N[C@@H](CCC(N)=O)C(=O)NC(C)(C)C(=O)N[C@@H](CCCCNC(=O)COCCOCCNC(=O)COCCOCCNC(=O)CC[C@H](NC(=O)CC[C@H](NC(=O)CCCCCCCCCCCCCCCCC(=O)O)C(=O)O)C(=O)O)C(=O)N[C@@H](Cc1ccccc1)C(=O)N[C@H](C(=O)N[C@@H](CC(N)=O)C(=O)N[C@@H](Cc1c[nH]c2ccccc12)C(=O)N[C@@H](CC(C)C)C(=O)N[C@@H](CC(C)C)C(=O)N[C@@H](C)C(=O)N[C@@H](CCC(N)=O)C(=O)N[C@@H](CCCNC(=N)N)C(=O)NCC(=O)NCC(=O)NCC(=O)NCC(=O)N[C@@H](CO)C(N)=O)C(C)C [Compound 21] (H-[NMeY][Aib]EGTFISDYSIALDR[Aib]AQ[Aib]K([AEEA-AEEA-γGlu-γGlu-C18 diacid])FVNWLLAQRGGGGS-NH2) | ≥ 15 mg/mL | ≥ 30 mg/mL |  | 
CC[C@H](C)[C@H](NC(=O)[C@H](CO)NC(=O)[C@H](Cc1ccc(O)cc1)NC(=O)[C@H](CC(=O)O)NC(=O)[C@H](CO)NC(=O)[C@@H](NC(=O)[C@H](Cc1ccccc1)NC(=O)[C@@H](NC(=O)CNC(=O)[C@H](CCC(=O)O)NC(=O)C(C)(C)NC(=O)[C@H](Cc1ccc(O)cc1)NC)[C@@H](C)O)[C@@H](C)CC)C(=O)N[C@@H](C)C(=O)N[C@@H](CCCCNC(=O)CNC(=O)CNC(=O)CNC(=O)CNC(=O)CNC(=O)CC[C@H](NC(=O)CCCCCCCCCCCCCCCC(=O)O)C(=O)O)C(=O)N[C@@H](CC(=O)O)C(=O)N[C@@H](CCCNC(=N)N)C(=O)NC(C)(C)C(=O)N[C@@H](C)C(=O)N[C@@H](CCC(N)=O)C(=O)NC(C)(C)C(=O)N[C@@H](CC(=O)O)C(=O)N[C@@H](Cc1ccccc1)C(=O)N[C@H](C(=O)N[C@@H](CC(N)=O)C(=O)N[C@@H](Cc1c[nH]c2ccccc12)C(=O)N[C@@H](CC(C)C)C(=O)N[C@@H](CC(C)C)C(=O)N[C@@H](C)C(=O)N[C@@H](CCC(N)=O)C(=O)N[C@@H](CCCNC(=N)N)C(=O)N1CCC[C@H]1C(=O)N[C@@H](CO)C(=O)N[C@@H](CO)C(=O)NCC(=O)N[C@@H](C)C(=O)N1CCC[C@H]1C(=O)N1CCC[C@H]1C(=O)N1CCC[C@H]1C(=O)N[C@@H](CO)C(N)=O)C(C)C [Compound 22] |  |  | ≥ 30 mg/mL | ≥ 15 mg/mL
CC[C@H](C)[C@H](NC(=O)[C@H](CO)NC(=O)[C@H](Cc1ccc(O)cc1)NC(=O)[C@H](CC(=O)O)NC(=O)[C@H](CO)NC(=O)[C@@H](NC(=O)[C@H](Cc1ccccc1)NC(=O)[C@@H](NC(=O)CNC(=O)[C@H](CCC(=O)O)NC(=O)C(C)(C)NC(=O)[C@H](Cc1ccc(O)cc1)NC)[C@@H](C)O)[C@@H](C)CC)C(=O)N[C@@H](C)C(=O)N[C@@H](CC(C)C)C(=O)N[C@@H](CC(=O)O)C(=O)N[C@@H](CCCNC(=N)N)C(=O)N[C@@H](CCCCNC(=O)COCCOCCNC(=O)COCCOCCNC(=O)CC[C@H](NC(=O)CCCCCCCCCCCCCCCCC(=O)O)C(=O)O)C(=O)N[C@@H](C)C(=O)N[C@@H](CCC(N)=O)C(=O)NC(C)(C)C(=O)N[C@@H](CC(=O)O)C(=O)N[C@@H](Cc1ccccc1)C(=O)N[C@H](C(=O)N[C@@H](CC(N)=O)C(=O)N[C@@H](Cc1c[nH]c2ccccc12)C(=O)N[C@@H](CC(C)C)C(=O)N[C@@H](CC(C)C)C(=O)N[C@@H](C)C(=O)N[C@@H](CCC(N)=O)C(=O)N[C@@H](CCCNC(=N)N)C(=O)N1CCC[C@H]1C(=O)N[C@@H](CO)C(=O)N[C@@H](CO)C(=O)NCC(=O)N[C@@H](C)C(=O)N1CCC[C@H]1C(=O)N1CCC[C@H]1C(=O)N1CCC[C@H]1C(=O)N[C@@H](CO)C(N)=O)C(C)C [Compound 23] (H-[NMeY][Aib]EGTFISDYSIALDRK([AEEA-AEEA-γGlu-C18 diacid])AQ[Aib]DFVNWLLAQRPSSGAPPPS-NH2) |  |  | ≥ 30 mg/mL | ≥ 15 mg/mL
CC[C@H](C)[C@H](NC(=O)[C@H](CO)NC(=O)[C@H](Cc1ccc(O)cc1)NC(=O)[C@H](CC(=O)O)NC(=O)[C@H](CO)NC(=O)[C@@H](NC(=O)[C@H](Cc1ccccc1)NC(=O)[C@@H](NC(=O)CNC(=O)[C@H](CCC(=O)O)NC(=O)C(C)(C)NC(=O)[C@H](Cc1ccc(O)cc1)NC)[C@@H](C)O)[C@@H](C)CC)C(=O)N[C@@H](C)C(=O)N[C@@H](CCCCNC(=O)CNC(=O)CNC(=O)CNC(=O)CNC(=O)CNC(=O)CC[C@H](NC(=O)CCCCCCCCCCCCCCCCC(=O)O)C(=O)O)C(=O)N[C@@H](CC(=O)O)C(=O)N[C@@H](CCCNC(=N)N)C(=O)NC(C)(C)C(=O)N[C@@H](C)C(=O)N[C@@H](CCC(N)=O)C(=O)NC(C)(C)C(=O)N[C@@H](CC(=O)O)C(=O)N[C@@H](Cc1ccccc1)C(=O)N[C@H](C(=O)N[C@@H](CC(N)=O)C(=O)N[C@@H](Cc1c[nH]c2ccccc12)C(=O)N[C@@H](CC(C)C)C(=O)N[C@@H](CC(C)C)C(=O)N[C@@H](C)C(=O)N[C@@H](CCC(N)=O)C(=O)N[C@@H](CCCNC(=N)N)C(=O)N1CCC[C@H]1C(=O)N[C@@H](CO)C(=O)N[C@@H](CO)C(=O)NCC(=O)N[C@@H](C)C(=O)N1CCC[C@H]1C(=O)N1CCC[C@H]1C(=O)N1CCC[C@H]1C(=O)N[C@@H](CO)C(N)=O)C(C)C [Compound 24] |  |  | ≥ 30 mg/mL | ≥ 15 mg/mL
